Data: US20230285347A1, “Preterm Labour with Prostaglandin E2 Receptor Agonists” (IMPERIAL COLLEGE INNOVATIONS LIMITED, priority 2020, published 2023)
Entries after “also recorded” stand apart in the source; their conditions may differ.

How the values were obtained:
Format in all cases: cell-based
human FLAG-tagged EP2 = target: T1, human FLAG-tagged EP2 (Homo sapiens, UniProt P43116); test: cAMP induction in HEK 293 cells stably expressing EP2 (Gαs readout); details: for cAMP efficacy at the maximal dose of each ligand: HEK 293 EP2 cells, 5 minutes of stimulation, no significant difference between ligands, FIG. 2
T1 construct: FLAG; expressed in transfected cells
T1 sequence (P43116 whole entry): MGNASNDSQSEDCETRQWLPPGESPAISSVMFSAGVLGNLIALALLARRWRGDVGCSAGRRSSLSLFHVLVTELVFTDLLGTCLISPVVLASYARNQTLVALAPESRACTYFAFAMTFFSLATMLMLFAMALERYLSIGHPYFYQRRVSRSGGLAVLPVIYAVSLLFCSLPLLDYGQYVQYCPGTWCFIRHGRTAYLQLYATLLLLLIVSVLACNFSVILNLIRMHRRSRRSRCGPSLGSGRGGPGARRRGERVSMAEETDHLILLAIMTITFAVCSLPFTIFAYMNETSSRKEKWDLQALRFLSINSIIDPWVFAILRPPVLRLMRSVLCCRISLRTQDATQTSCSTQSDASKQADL
Description: EP2 is a dually coupled GPCR capable of activating downstream signalling pathways via Gαs (anti-labour inducing) and Gαq/11 (pro-labour inducing).
HEK 293 cells were maintained in DMEM (Dulbecco's Modified Eagle Medium) containing 10% fetal bovine serum and 100 μ/ml penicillin-streptomycin, and cultured in 75 cm flasks at 37° C. in 95% air and 5% CO2. Cells at 95% confluency were passaged using 0.25% trypsin with 0.02% EDTA in phosphate-buffered saline (PBS).
(§1) Confluent myometrial cells were treated with/without OT (100 nM) for 1 hour before 3 PBS washes and the addition of […] IBMX (3-isobutyl-1-methylxanthine) in PBS for 5 minutes at 37° C. This was exchanged for 0.5 μM IBMX in PBS plus either DMSO, butaprost (10 μM), AH13205 (10 μM) or PGN9856i (100 nM) for […]. Cells were lysed in Cisbio cAMP lysis buffer with 0.2% TritonX-100 and centrifuged for 15 minutes at 16,000 g. Lysates were normalized to protein concentration determined by Coomassie (Bradford) Protein Assay Kit and analysed as per manufacturers' protocol (Cisbio Gαs dynamic assay) using a PHERAstar FSX.

EP2 [1] = target: T2, EP2 (Homo sapiens, UniProt P43116); test: cAMP in non-labouring myometrial cells with/without oxytocin pre-treatment; details: OT pre-treatment 1 hour, 100 nM; butaprost 10 μM, AH13205 10 μM, PGN9856i 100 nM; FIG. 10
T2 construct: primary human myocytes cultured from term pregnant, non-labouring, myometrium; endogenous in cells; host or cells: primary human myometrial cells (myocytes) cultured from pregnant myometrium
T2 sequence (P43116 whole entry): as above
Description: Myometrial cells with/without oxytocin (OT) pre-treatment (1 hour, 100 nM) were treated with IBMX (5 minutes, 0.5 mM) before 1 minute stimulation with IBMX with/without either DMSO, butaprost (10 μM), AH13205 (10 μM) or PGN9856i (100 nM). cAMP concentrations were normalised to protein. Each patient's data normalised to butaprost response and shown as mean±SEM, n=6. One-sample t-test: #p<0.05. ##p<0.01. One-way ANOVA with Sidak's multiple comparison post-hoc test: **p<0.01.
as §1

EP2 [2] = target: T2, EP2; test: PGE2 release by ELISA in primary myometrial cells; details: 6 hours, butaprost 10 μM, PGN9856i 100 nM, without OT, FIG. 7, FIG. 12
Excerpt: Tissue culture media collected and used for ELISA. Data shown as mean±SEM from at least 3 independent experiments. One-way ANOVA with Dunnet's multiple comparison post-hoc test: *p<0.05, **p<0.01. PGN9856i is unable to elicit PGE2 release in primary myometrial cells.
In the myometrium EP2 is an important regulator of parturition. To assess if PGN9856i, butaprost and AH13205 induce similar second messenger profiles in the myometrium as HEK 293 cells, primary human myocytes cultured from term pregnant, non-labouring, myometrium, were treated with each ligand and intracellular cAMP, calcium and PGE2 release was measured.
Myometrial tissue was acquired at St. Mary's hospital, Queen Charlotte and Chelsea hospital and Charing Cross hospital, London. Tissue was obtained from women provided with informed written consent with the approval from the Riverside Research Ethics Committee (RREC 3357, 1997-5089, 19/LO/1657) and experiments were carried out under the committee's guidelines and recommendations. […]
Myometrial cells were treated for 6-hours with EP2 agonist (butaprost 10 μM, AH13205 10 μM or PGN9856i 100 nM) or DMSO with/without 1-hour OT (100 nM) pre-treatment. […] Samples were defrosted at room temperature and vortexed before quantification of IL-6 concentrations via ELISA as per manufacturer's instructions (Enzo Lifesciences).

EP2 [3] = target: T2, EP2; test: Intracellular calcium in myometrial cells with/without oxytocin pre-treatment; details: OT pre-treatment 1 hour, 100 nM; butaprost 10 μM, AH13205 10 μM, PGN9856i 100 nM; FIG. 11
Description: Intracellular calcium response in myometrial cells with/without OT pre-treatment (1 hour, 100 nM) stimulated with butaprost (10 μM), AH13205 (10 μM) or PGN9856i (100 nM). Data are the mean of the maximum fluorescence intensity for each cell measured normalised to background (F-FO). Shown as fold-change over butaprost response. One-way ANOVA with Dunnett's multiple comparison post-hoc test: ##p<0.01. One-sample t-test: *p<0.05.

Row | cAMP efficacy at the maximal dose of each ligand (human FLAG-tagged EP2) | effect of OTR activation on ligand's ability to increase intracellular cAMP (EP2 [1]) | Compound | EC50 for EP2 agonist-mediated induction of cAMP (relative potency) (human FLAG-tagged EP2; HEK 293 cells stably expressing human FLAG-tagged EP2, dose-response curves, FIG. 1) | PGE2 release (EP2 [2]) | calcium response with OT pre-treatment (EP2 [3])
1 | equally efficacious | significantly reduced | CC(C)OC(=O)COc1cccc(NC(=O)c2cc(-c3cccc(F)c3)ccc2F)c1 [PGN9856i, propan-2-yl 2-(3-{3′,4-difluoro-[1,1′-biphenyl]-3-amido}phenoxy)acetate] | greatest potency, by three orders of magnitude | unable to activate; also recorded: unable to cause PGE2 release | unable to elicit a response
2 | equally efficacious | significantly reduced | CCCC1([C@H](O)C/C=C/[C@H]2[C@H](O)CC(=O)[C@@H]2CCCCCCC(=O)OC)CCC1 [butaprost] |  | significantly enhanced PGE2 release | significantly enhance the calcium response
